Article PMC8253220, “Molecular design, synthesis and in vitro biological evaluation of thienopyrimidine–hydroxamic acids as chimeric kinase HDAC inhibitors: a challenging approach to combat cancer” (Journal of Enzyme Inhibition and Medicinal Chemistry, 2021)
Where “and” joins values, the source holds several entries; their conditions need not be identical. Equal entries are not always repeated.

Legend:
VEGFR-2 = VEGFR-2 (Homo sapiens, UniProt P35968); test: In vitro VEGFR-2 tyrosine kinase inhibitory assay (Z'-LYTE, SelectScreen); type: biochemical; conditions: 10 µM single dose
How it was run: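 Z'-LYTE fluorescence coupled-enzyme format, read-out based on differential protease cleavage of phosphorylated vs non-phosphorylated peptide. Compounds screened at 10 µM single dose for % inhibition, then selected ones tested at 0.1 nM–10 µM for IC50 by curve fitting.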

786-0 = test: NCI one-dose screen; type: cell-based, human; conditions: Renal 786-0, 10 µM single dose
How it was run: (§1)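 One concentration (10 μM) applied to each line of the full NCI-60 panel; percent growth compared against untreated cells.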

ACHN = test: NCI one-dose screen; type: cell-based, human; conditions: Renal ACHN, 10 µM single dose
How it was run: as §1

CCRF-CEM = test: NCI one-dose screen; type: cell-based, human; conditions: Leukemia CCRF-CEM, 10 µM single dose
How it was run: as §1

COLO 205 = test: NCI one-dose screen; type: cell-based, human; conditions: Colon COLO 205, 10 µM single dose
How it was run: as §1

HCT-116 = test: NCI one-dose screen; type: cell-based, human; conditions: Colon HCT-116, 10 µM single dose
How it was run: as §1

HT29 = test: NCI one-dose screen; type: cell-based, human; conditions: Colon HT29, 10 µM single dose
How it was run: as §1

IGROV1 = test: NCI one-dose screen; type: cell-based, human; conditions: Ovarian IGROV1, 10 µM single dose
How it was run: as §1

K-562 = test: NCI one-dose screen; type: cell-based, human; conditions: Leukemia K-562, 10 µM single dose
How it was run: as §1

LOX IMVI = test: NCI one-dose screen; type: cell-based, human; conditions: Melanoma LOX IMVI, 10 µM single dose
How it was run: as §1

M14 = test: NCI one-dose screen; type: cell-based, human; conditions: Melanoma M14, 10 µM single dose
How it was run: as §1

MALME-3M = test: NCI one-dose screen; type: cell-based, human; conditions: Melanoma MALME-3M, 10 µM single dose
How it was run: as §1

MOLT-4 = test: NCI one-dose screen; type: cell-based, human; conditions: Leukemia MOLT-4, 10 µM single dose
How it was run: (§2)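 Compounds were tested at a single dose of 10 μM across the full NCI-60 cell line panel. Growth was expressed as percent growth relative to untreated control cells, reported as percent inhibition.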

NCI-H226 = test: NCI one-dose screen; type: cell-based, human; conditions: for Growth Percent: NSCLC NCI-H226, 10 µM single dose
How it was run: (§3)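 Percent growth inhibition, referenced to untreated control cells, was determined after a single 10 μM compound exposure in the NCI 60-cell-line anticancer screen.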

NCI-H23 = test: NCI one-dose screen; type: cell-based, human; conditions: NSCLC NCI-H23, 10 µM single dose
How it was run: as §2

NCI-H522 = test: NCI one-dose screen; type: cell-based, human; conditions: NSCLC NCI-H522, 10 µM single dose
How it was run: as §3

NCI/ADR-RES = test: NCI one-dose screen; type: cell-based, human; conditions: Ovarian NCI/ADR-RES, 10 µM single dose
How it was run: as §1

SF-268 = test: NCI one-dose screen; type: cell-based, human; conditions: CNS SF-268, 10 µM single dose
How it was run: as §2

SK-MEL-2 = test: NCI one-dose screen; type: cell-based, human; conditions: Melanoma SK-MEL-2, 10 µM single dose
How it was run: (§4)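 In vitro antiproliferative testing: NCI-60 panel, initial single dose 10 μM, inhibition % derived from percent growth of treated versus untreated control cells.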

SNB-19 = test: NCI one-dose screen; type: cell-based, human; conditions: CNS SNB-19, 10 µM single dose
How it was run: as §4

SNB-75 = test: NCI one-dose screen; type: cell-based, human; conditions: CNS SNB-75, 10 µM single dose
How it was run: as §3

SR = test: NCI one-dose screen; type: cell-based, human; conditions: Leukemia SR, 10 µM single dose
How it was run: as §1

SW-620 = test: NCI one-dose screen; type: cell-based, human; conditions: Colon SW-620, 10 µM single dose
How it was run: as §2

T-47D = test: NCI one-dose screen; type: cell-based, human; conditions: Breast T-47D, 10 µM single dose
How it was run: as §1

UACC-62 = test: NCI one-dose screen; type: cell-based, human; conditions: Melanoma UACC-62, 10 µM single dose
How it was run: as §1

VEGFR-2, sequence (P35968 20-1356): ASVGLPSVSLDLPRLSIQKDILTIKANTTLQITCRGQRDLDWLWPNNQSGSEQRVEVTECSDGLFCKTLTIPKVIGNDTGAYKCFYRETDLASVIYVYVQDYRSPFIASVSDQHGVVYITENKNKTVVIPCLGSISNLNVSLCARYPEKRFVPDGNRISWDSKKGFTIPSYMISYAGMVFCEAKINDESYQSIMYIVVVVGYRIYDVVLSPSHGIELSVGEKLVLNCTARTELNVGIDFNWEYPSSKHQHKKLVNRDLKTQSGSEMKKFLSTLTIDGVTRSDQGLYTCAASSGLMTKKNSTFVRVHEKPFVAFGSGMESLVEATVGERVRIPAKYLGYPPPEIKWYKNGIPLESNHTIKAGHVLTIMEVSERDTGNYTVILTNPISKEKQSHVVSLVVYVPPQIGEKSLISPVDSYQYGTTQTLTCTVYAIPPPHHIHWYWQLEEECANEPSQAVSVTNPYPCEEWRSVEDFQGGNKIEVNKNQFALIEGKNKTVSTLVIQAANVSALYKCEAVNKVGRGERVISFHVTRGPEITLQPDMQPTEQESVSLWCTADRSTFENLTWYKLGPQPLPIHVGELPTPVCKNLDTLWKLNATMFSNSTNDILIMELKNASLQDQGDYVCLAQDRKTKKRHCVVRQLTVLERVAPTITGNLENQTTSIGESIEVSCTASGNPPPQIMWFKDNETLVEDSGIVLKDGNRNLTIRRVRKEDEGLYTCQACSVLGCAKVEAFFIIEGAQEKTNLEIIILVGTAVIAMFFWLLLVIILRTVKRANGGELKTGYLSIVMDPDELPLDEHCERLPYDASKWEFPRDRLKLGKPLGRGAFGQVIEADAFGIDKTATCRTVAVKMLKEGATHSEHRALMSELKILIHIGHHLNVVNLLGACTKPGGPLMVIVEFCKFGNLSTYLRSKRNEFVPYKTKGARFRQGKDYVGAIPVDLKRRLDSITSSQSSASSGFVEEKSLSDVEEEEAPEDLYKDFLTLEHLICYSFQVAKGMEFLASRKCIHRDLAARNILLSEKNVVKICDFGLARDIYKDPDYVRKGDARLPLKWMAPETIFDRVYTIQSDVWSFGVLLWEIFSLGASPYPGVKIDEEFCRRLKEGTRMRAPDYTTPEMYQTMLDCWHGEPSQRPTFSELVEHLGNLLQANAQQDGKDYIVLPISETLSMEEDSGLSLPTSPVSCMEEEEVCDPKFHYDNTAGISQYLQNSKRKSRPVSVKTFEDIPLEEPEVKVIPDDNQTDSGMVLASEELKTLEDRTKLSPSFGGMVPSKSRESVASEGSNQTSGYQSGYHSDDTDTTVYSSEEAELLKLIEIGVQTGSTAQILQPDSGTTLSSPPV

| Compound | inhibition at 10 µM (VEGFR-2) [%] | Growth Percent (786-0) | Growth Percent (ACHN) | Growth Percent (CCRF-CEM) | Growth Percent (COLO 205) | Growth Percent (HCT-116) | Growth Percent (HT29) | Growth Percent (IGROV1) | Growth Percent (K-562) | Growth Percent (LOX IMVI) | Growth Percent (M14) | Growth Percent (MALME-3M) | Growth Percent (MOLT-4) | Growth Percent (NCI-H226) | Growth Percent (NCI-H23) | Growth Percent (NCI-H522) | Growth Percent (NCI/ADR-RES) | Growth Percent (SF-268) | Growth Percent (SK-MEL-2) | Growth Percent (SNB-19) | also measured |
| --- | --- | --- | --- | --- | --- | --- | --- | --- | --- | --- | --- | --- | --- | --- | --- | --- | --- | --- | --- | --- | --- |
| Cc1c(C(=O)NCCCC(=O)NO)sc2ncnc(Nc3ccc(Cl)cc3)c12 [Compound 20c, 4–(4-chlorophenylamino)-N-(4-(hydroxyamino)-4-oxobutyl)-5-methylthieno[2,3-d]pyrimidine-6-carboxamide] | 35 | 83.0% and 83.06% | 105.1% and 105.18% | 108.0% and 108.09% | 117.8% and 117.81% | 108.2% and 108.21% | 108.2% and 108.21% | 81.1% and 81.14% | 108.0% | 99.2% and 99.24% | 107.6% and 107.62% | 112.5% and 112.53% | 108.7% and 108.77% | 92.0% and 92.02% | 94.9% and 94.98% | 91.2% and 91.22% | 100.5% and 100.58% | 97.2% and 97.29% | 106.2% and 106.25% | 99.1% and 99.11% | Growth Percent (SNB-75): 79.1% and 79.17%; Growth Percent (SR): 102.6% and 102.62%; Growth Percent (SW-620): 102.3% and 102.37%; Growth Percent (T-47D): 105.2% and 105.24%; Growth Percent (UACC-62): 98.8% and 98.83% |
| Cc1c(C(=O)NCCCC(=O)NO)sc2ncnc(Nc3ccc(F)c(Cl)c3)c12 [Compound 20d, 4–(3-chloro-4-fluorophenylamino)-N-(4-(hydroxyamino)-4-oxobutyl)-5-methylthieno[2,3-d]pyrimidine-6-carboxamide] | 20 | 104.6% and 104.67% | 102.2% and 102.28% | 107.9% and 107.95% | 119.1% and 119.14% | 105.9% and 105.97% | 107.1% and 107.13% | 98.9% and 98.94% | 117.4% and 117.47% | 96.3% | 102.6% | 115.8% and 115.88% | 109.8% and 109.84% | 88.7% and 88.71% | 98.9% and 98.94% | 92.6% and 92.67% | 104.1% and 104.13% | 95.2% | 113.2% and 113.22% | 98.1% and 98.16% | inhibition at 10 µM (NCI-H226; Homo sapiens, NSCLC NCI-H226, 10 μM): 11.3%; Growth Percent (SNB-75): 90.4% and 90.45%; Growth Percent (SR): 110.0% and 110.02%; Growth Percent (SW-620): 103.1% and 103.17%; Growth Percent (T-47D): 112.6% and 112.64%; Growth Percent (UACC-62): 93.7% and 93.74% |
